Measured values reported in PubChem BioAssay AID248 (DTP/NCI, 2004).
Inconclusive results and toxic doses are left out. Cut-off read from the data, not from the text of the source: active = T/C of 150% or more; inactive = T/C below 125%.

Test system: L1210 leukemia ip in BDF1 mice, survival T/C
Experiment: NCI In Vivo Anticancer Drug Screen. Data for tumor model L1210 Leukemia (intraperitoneal) in B6D2F1 (BDF1) mice
Details: endpoint: mean survival time, higher = longer survival
Summary of the method: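 Tumor cells were implanted, animals were treated, and survival was followed. The result divides the treated measurement by the vehicle-control measurement.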

Measured: T/C

O=C(O)C1(Br)CC12c1ccccc1-c1ccccc12 (stereo not drawn)
inactive: dose: 100.0 mg/kg/injection, schedule: Q01DX001 (ip), vehicle: acetone 92 % of control | dose: 200.0 mg/kg/injection, schedule: Q01DX001 (ip), vehicle: acetone 95 % of control

CN1CCN(C(c2ccccc2)c2ccc(Cl)cc2)CC1 (stereo not drawn)
inactive: dose: 6.25 mg/kg/injection, schedule: Q01DX009 (ip), vehicle: saline 102 % of control | dose: 12.5 mg/kg/injection, schedule: Q01DX009 (ip), vehicle: saline 92 % of control | dose: 12.5 mg/kg/injection, schedule: Q04DX003 (ip), vehicle: saline 95 % of control | dose: 25.0 mg/kg/injection, schedule: Q01DX009 (ip), vehicle: saline 94 % of control | dose: 25.0 mg/kg/injection, schedule: Q04DX003 (ip), vehicle: saline 111 % of control | dose: 50.0 mg/kg/injection, schedule: Q01DX009 (ip), vehicle: saline 100 % of control | dose: 50.0 mg/kg/injection, schedule: Q04DX003 (ip), vehicle: saline 90 % of control | dose: 100.0 mg/kg/injection, schedule: Q04DX003 (ip), vehicle: saline 97 % of control

CCC[CH2][Sn]([CH2]C)([CH2]C)[O]C(C)=O
inactive: dose: 5.0 mg/kg/injection, schedule: Q01DX001 (ip), vehicle: saline with Tween-80 90 % of control | dose: 10.0 mg/kg/injection, schedule: Q01DX001 (ip), vehicle: saline with Tween-80 93 % of control

CC12CC3(O)OC(O1)C1(COC(=O)c4ccccc4)C3CC21OC1OC(CO)C(O)C(O)C1O (stereo not drawn)
inactive: dose: 100.0 mg/kg/injection, schedule: Q04DX002 (ip), vehicle: saline 107 % of control | dose: 200.0 mg/kg/injection, schedule: Q04DX002 (ip), vehicle: saline 107 % of control | dose: 400.0 mg/kg/injection, schedule: Q04DX002 (ip), vehicle: saline 114 % of control

O=C(NC(C(O)CO)C(OC(=O)c1ccccc1)C(O)CO)c1ccccc1 (stereo not drawn)
inactive: dose: 100.0 mg/kg/injection, schedule: Q01DX009 (ip), vehicle: saline with Tween-80 105 % of control | dose: 200.0 mg/kg/injection, schedule: Q01DX009 (ip), vehicle: saline with Tween-80 94 % of control | dose: 400.0 mg/kg/injection, schedule: Q01DX009 (ip), vehicle: saline with Tween-80 94 % of control
